Values joined by “and” are separate entries in the source; they are usually repeats but may differ in a detail not shown here. Identical values can stand only once. Like-named read-outs stand apart in the source and are kept apart here.
How the values were obtained:
[1] = test system: U87 MG human glioblastoma xenograft; assay: Effect of intravenous VEGF on tumor luminescence in U87 MG intracranial xenograft (IVIS); assay type: in vivo, BALB/c NU mice; conditions: paired t-test per mouse
[2] = test system: blood-brain barrier (BBB)
[3] = test system: MCAO ischaemic stroke model; assay: Middle Cerebral Artery Occlusion (MCAO) model, hMSC cell therapy with VEGF pre-treatment; assay type: in vivo, rats
From the text: The procedure published by Boyko and colleagues (Boyko, et al., Journal of Neuroscience Methods 193(2): 246-253; 2010) was used to create a middle cerebral artery occlusion (MCAO) model in rats. In brief, the left side carotid bifurcation was exposed with a self-retractor. After carefully separating the […] (ICA) from peripheral soft tissue, a small opening was created at the proximal ICA. Silicon-coated 4-0 monofilament nylon was inserted from the opening and penetrated forward to the beginning of middle cerebral artery (MCA). An O2C oximeter was used to transcranially monitor the ipsilateral MCA blood flow. Once blood flow decreased successfully, the nylon suture was fixed in situ, mimicking ischaemic stroke. After 90 minutes of ischaemic injury, the suture was removed, allowing reperfusion. A stable and reproducible cerebral infarction could be created with this procedure. […] MCAO model rats were divided into four groups: […] Discosoma sp. Red (Ds-Red)-expressing human mesenchymal stem cells (hMSCs) were used for MCAO cell therapy. […] To evaluate the infarction size, rats were sacrificed three days after ischaemic-reperfusion injury and treatment. […] Brain slices were then scanned and the infarction size was calculated by measuring the pale area with ImageJ software. […]

[4] = test system: blood-brain barrier (BBB); assay: Penetration of PEGylated fluorescent nanoparticles through the BBB (IVIS, immunohistochemistry); assay type: in vivo, FVB mice; conditions: 0.3 μg/Kg VEGF iv 45 min before PEGylated nanoparticles
From the text: COOH-modified nanoparticles (20 to 500 nm) were covalently modified with methoxy (MeO)-PEG-amine (NH2) according to previously published protocols (Nance et al., Sci Transl Med 4(149): 149ra119; 2012). PEGylated fluorescent nanoparticles of 20 nm, 100 nm and 500 nm were used to investigate the biodistribution and extravasation after intravenous injection and perfusion into FVB mice. These nanoparticles were quantified by IVIS and immunohistochemistry.
All IVIS images were taken using a Xenogen IVIS Spectrum device (PerkinElmer, Waltham, Mass.).
The mice were subjected to perfusion following routine procedures 30 minutes after injection of the nanoparticles and the brain tissues were analyzed by IVIS imaging and immunohistochemistry. FIG. 2, panel A. The amount of nanoparticles accumulated in the brain tissue (i.e., across the BBB) was determined by measuring the intensity of the fluorescent signals. Results are illustrated in FIG. 2, panels B-D.

[5] = test system: blood-brain barrier (BBB); remark: listed apart in the source
[6] = test system: U-87MG glioblastoma xenograft; conditions: for Median Survival: VEGF 0.3 μg/kg where given
Protocol: The human luciferase-expressing glioblastoma cell line U-87MG was used for all GBM experiments. Cells were routinely cultured in EMEM with 10% FBS, at 37° C. with 5% CO2.
BALB/c nude mice were orthotropically xenografted with U87 glioma cells (2×10^5) by stereotactic (2 mm right and 1 mm posterior to the bregma, 3.5 mm deep from the dura) injection into the brain. Mouse tumor progression was measured by IVIS at different time points (0, 1, 3, 7 . . . every 7 days until 60 days).
The DNA methylating drug temozolomide (TMZ) was used as therapy for GBM model mice. […] Tumor growth was monitored by in vivo bioluminescent imaging. Mice were observed over 60 days and their survival rates recorded on a Kaplan-Meier survival curve.

vascular endothelial growth factor [VEGF]
Change of tumor size from D21 to D27 [1]: tumors were larger
Cortex, signal to noise ratio T1WI Post-iv ([2]; 5 minutes after 0.2 mmol/kg gadolinium contrast agent, given 45 min after VEGF): 58.30
Increase % of signal to noise ratio (detectable level of gadolinium contrast agent in brain) ([2]; average, VEGF 0.3 ug/kg pre-treatment): 15.5%
Signal to noise ratio (SNR) enhancement, individual mice ([2]; each of the 3 VEGF-treated mice): 17% and 14% and 15.5%
Brain infarction ([3]; MCAO, VEGF pre-treatment 0.3 μg/kg): reduced the brain infarction
hMSCs delivered to the brain (Ds-Red fluorescent intensity) ([3]; hMSCs 35 min after 0.3 μg/kg VEGF, vs control): more hMSCs were delivered to the brain
Nanoparticles crossing the BBB (fluorescence intensity in brain) [4]: facilitated the nanoparticles to cross BBB
Persistence of increased BBB permeability ([5]; 0.3 μg/kg VEGF): at least 60 min
Time of maximum BBB permeability after VEGF ([5]; 0.3 μg/kg VEGF): about 45 min
Time after VEGF injection at which significant BBB permeability increase was observed ([5]; 0.3 μg/kg VEGF, EB injected after VEGF): 15 min
Time to return to normal BBB permeability ([5]; after VEGF administration): 2 h
Duration of increased BBB permeability ([5]; low dose VEGF): about 1 hr
BBB permeability of EB (Evans Blue content of brain tissue) ([5]; mice, VEGF 0.1-2.0 μg/kg, vs saline control): increased BBB permeability
Time of peak BBB permeability after VEGF administration ([5]; summary statement): 45 min
Increase of BBB permeability ([5]; temporary increase after VEGF administration): approximately three-fold
Median Survival with VEGF vs TMZ alone (% increase) ([6]; GBM mice, TMZ 5 mg/kg): 10 % increase
Delay in tumor growth by TMZ with VEGF pre-treatment ([6]; VEGF 0.3 μg/kg before 5 mg/kg TMZ): further enhanced the delay in tumor growth

Cn1nnc2c(C(N)=O)ncn2c1=O [TMZ, temozolomide]
Delay of GBM growth ([6]; 5 mg/kg TMZ, vs GBM mice not treated by TMZ): at least 20 days
Median Survival vs vehicle (% increase) ([6]; GBM mice, TMZ 5 mg/kg): 31.58 % increase
Median Survival ([6]; GBM mice, TMZ 5 mg/kg): 50 days
Median Survival vs vehicle (% increase) ([6]; GBM mice, TMZ 20 mg/kg): 31.58 % increase
Median Survival ([6]; GBM mice, TMZ 20 mg/kg): 50 days

Reference: US20210275640A1, “METHODS FOR ENHANCING PERMEABILITY TO BLOOD-BRAIN BARRIER, AND USES THEREOF” (ACADEMIA SINICA, priority 2014, published 2021)
